ChEMBL document CHEMBL1148021, “(Arylpiperazinyl)cyclohexylsufonamides: discovery of alpha(1a/1d)-selective adrenergic receptor antagonists for the treatment of Benign Prostatic Hyperplasia/Lower Urinary Tract Symptoms (BPH/LUTS)” (Bioorg Med Chem Lett, 2007)

Key:
D(2) dopamine receptor = D(2) dopamine receptor (Homo sapiens, UniProt P14416); assay: Binding affinity to human dopamine D2 receptor
[1] = target: T1, Alpha-1B adrenergic receptor (Homo sapiens, UniProt P35368); assay: Binding affinity to human cloned adrenergic alpha-1B receptor
T1 sequence (P35368 whole entry): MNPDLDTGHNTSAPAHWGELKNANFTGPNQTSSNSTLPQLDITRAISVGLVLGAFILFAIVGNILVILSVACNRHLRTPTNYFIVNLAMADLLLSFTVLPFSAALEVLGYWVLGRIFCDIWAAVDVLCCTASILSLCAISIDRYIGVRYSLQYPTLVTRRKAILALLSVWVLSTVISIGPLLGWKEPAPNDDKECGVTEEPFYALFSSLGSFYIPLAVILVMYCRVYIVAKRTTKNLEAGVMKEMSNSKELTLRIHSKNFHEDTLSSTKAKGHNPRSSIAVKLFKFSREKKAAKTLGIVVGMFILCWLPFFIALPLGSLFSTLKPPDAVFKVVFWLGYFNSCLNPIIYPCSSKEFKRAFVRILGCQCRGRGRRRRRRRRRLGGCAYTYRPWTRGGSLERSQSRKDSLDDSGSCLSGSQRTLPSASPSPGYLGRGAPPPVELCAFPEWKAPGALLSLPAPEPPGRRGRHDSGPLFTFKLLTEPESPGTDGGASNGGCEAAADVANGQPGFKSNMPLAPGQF

[2] = target: T2, Alpha-1D adrenergic receptor (Homo sapiens, UniProt P25100); assay: Binding affinity to human cloned adrenergic Alpha-1D receptor
T2 sequence (P25100 whole entry): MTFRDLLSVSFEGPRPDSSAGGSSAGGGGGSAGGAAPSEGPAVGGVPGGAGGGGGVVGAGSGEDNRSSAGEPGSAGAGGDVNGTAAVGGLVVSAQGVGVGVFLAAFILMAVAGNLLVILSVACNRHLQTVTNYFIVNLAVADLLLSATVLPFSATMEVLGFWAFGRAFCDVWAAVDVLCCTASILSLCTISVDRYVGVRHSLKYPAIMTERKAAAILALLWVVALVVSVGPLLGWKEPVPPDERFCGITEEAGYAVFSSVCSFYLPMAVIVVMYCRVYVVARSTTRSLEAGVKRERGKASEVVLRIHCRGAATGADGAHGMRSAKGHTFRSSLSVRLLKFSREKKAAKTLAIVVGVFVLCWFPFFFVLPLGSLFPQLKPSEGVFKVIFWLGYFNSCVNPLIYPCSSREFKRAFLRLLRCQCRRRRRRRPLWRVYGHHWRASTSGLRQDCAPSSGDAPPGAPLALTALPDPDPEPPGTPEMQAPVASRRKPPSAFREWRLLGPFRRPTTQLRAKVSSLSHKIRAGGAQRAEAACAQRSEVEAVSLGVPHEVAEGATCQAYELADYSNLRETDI

[3] = target: T3, Alpha-1A adrenergic receptor (Homo sapiens, UniProt P35348); assay: Binding affinity to human cloned adrenergic alpha-1A receptor
T3 sequence (P35348 whole entry): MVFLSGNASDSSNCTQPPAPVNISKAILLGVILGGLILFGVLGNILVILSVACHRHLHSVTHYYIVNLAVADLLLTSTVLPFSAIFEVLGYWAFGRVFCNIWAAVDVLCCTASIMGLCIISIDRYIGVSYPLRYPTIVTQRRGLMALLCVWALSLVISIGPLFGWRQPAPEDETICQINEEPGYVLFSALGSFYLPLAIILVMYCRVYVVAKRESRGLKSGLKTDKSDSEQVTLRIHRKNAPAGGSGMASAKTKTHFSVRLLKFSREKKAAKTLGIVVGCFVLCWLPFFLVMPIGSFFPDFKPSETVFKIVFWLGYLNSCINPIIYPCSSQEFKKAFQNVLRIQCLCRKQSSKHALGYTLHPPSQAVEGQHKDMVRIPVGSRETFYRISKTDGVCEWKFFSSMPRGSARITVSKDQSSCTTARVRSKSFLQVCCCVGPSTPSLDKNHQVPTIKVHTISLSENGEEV

Chain of D(2) dopamine receptor (P14416 whole entry): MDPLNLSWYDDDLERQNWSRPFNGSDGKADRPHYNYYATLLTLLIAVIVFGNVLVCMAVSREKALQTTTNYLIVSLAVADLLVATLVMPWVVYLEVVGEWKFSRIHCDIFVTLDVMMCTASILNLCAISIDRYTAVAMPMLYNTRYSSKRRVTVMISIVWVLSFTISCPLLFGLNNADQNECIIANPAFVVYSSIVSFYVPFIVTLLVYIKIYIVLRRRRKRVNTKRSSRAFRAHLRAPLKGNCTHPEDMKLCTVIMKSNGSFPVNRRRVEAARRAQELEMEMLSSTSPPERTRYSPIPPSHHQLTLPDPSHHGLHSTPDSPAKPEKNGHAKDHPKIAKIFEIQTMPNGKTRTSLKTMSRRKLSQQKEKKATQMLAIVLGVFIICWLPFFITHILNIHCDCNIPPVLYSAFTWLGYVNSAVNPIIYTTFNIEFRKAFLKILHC

Row | Ki (D(2) dopamine receptor) | Compound | other results
1 | 92 nM | COc1ccncc1S(=O)(=O)N[C@H]1CC[C@@H](N2CCN(c3ccccc3OC(C)C)CC2)CC1 | –
2 | 61 nM | CC(C)Oc1ccccc1N1CCN([C@H]2CC[C@@H](NS(=O)(=O)c3cnc(Cl)c(Br)c3)CC2)CC1 | –
3 | 74 nM | CC(C)Oc1ccccc1N1CCN([C@H]2CC[C@@H](NS(=O)(=O)c3cccc(F)c3)CC2)CC1 | –
4 | 64 nM | CC(C)Oc1ccccc1N1CCN([C@H]2CC[C@H](NS(=O)(=O)c3cccc(F)c3)CC2)CC1 | –
5 | 198 nM | CC(C)Oc1ccccc1N1CCN([C@H]2CC[C@@H](NS(=O)(=O)c3cccc(Cl)c3F)CC2)CC1 | Ki [1]: 120 nM; Ki [2]: 6.2 nM
6 | 130 nM | CC(C)Oc1ccccc1N1CCN([C@H]2CC[C@@H](NS(=O)(=O)c3ccc(Cl)cc3F)CC2)CC1 | –
7 | 39 nM | CC(C)Oc1ccccc1N1CCN([C@H]2CC[C@H](NS(=O)(=O)c3cccc(C(F)(F)F)c3)CC2)CC1 | –
8 | 42 nM | CC(C)Oc1ccccc1N1CCN([C@H]2CC[C@H](NS(=O)(=O)c3ccc(Cl)cc3F)CC2)CC1 | –
9 | 118 nM | CC(C)Oc1ccccc1N1CCN([C@H]2CC[C@@H](NS(=O)(=O)c3cccc(C(F)(F)F)c3)CC2)CC1 | –
10 | 80 nM | CC(C)Oc1ccccc1N1CCN([C@H]2CC[C@H](NS(=O)(=O)c3cnc(Cl)c(Br)c3)CC2)CC1 | –
11 | 37 nM | COc1ccc(Br)cc1S(=O)(=O)N[C@H]1CC[C@@H](N2CCN(c3ccccc3OC(C)C)CC2)CC1 | –
12 | 60 nM | Cc1ccc(S(=O)(=O)N[C@H]2CC[C@@H](N3CCN(c4ccccc4OC(C)C)CC3)CC2)cc1Cl | Ki [3]: 11 nM
13 | 78 nM | COc1ccc(Cl)cc1S(=O)(=O)N[C@H]1CC[C@H](N2CCN(c3ccccc3OC(C)C)CC2)CC1 | –
14 | 52 nM | Cc1ccc(S(=O)(=O)N[C@H]2CC[C@H](N3CCN(c4ccccc4OC(C)C)CC3)CC2)cc1Cl | –
15 | 34 nM | CC(C)Oc1ccccc1N1CCN([C@H]2CC[C@H](NS(=O)(=O)c3ccccc3)CC2)CC1 | –
16 | 31 nM | CC(C)Oc1ccccc1N1CCN([C@H]2CC[C@H](NS(=O)(=O)c3ccccc3F)CC2)CC1 | –
17 | 15 nM | CC(C)Oc1ccccc1N1CCN([C@H]2CC[C@@H](NS(=O)(=O)c3cccnc3)CC2)CC1 | –
18 | 69 nM | CC(C)Oc1ccccc1N1CCN([C@H]2CC[C@@H](NS(=O)(=O)c3ccc(F)cc3)CC2)CC1 | –
19 | 62 nM | COc1ccc(S(=O)(=O)N[C@H]2CC[C@H](N3CCN(c4ccccc4OC(C)C)CC3)CC2)cc1OC | –
20 | 55 nM | CC(C)Oc1ccccc1N1CCN([C@H]2CC[C@H](NS(=O)(=O)c3cccnc3)CC2)CC1 | –
21 | 43 nM | COc1ccncc1S(=O)(=O)N[C@H]1CC[C@H](N2CCN(c3ccccc3OC(C)C)CC2)CC1 | –
22 | 42 nM | CC(C)Oc1ccccc1N1CCN([C@H]2CC[C@@H](NS(=O)(=O)c3ccc(Cl)cc3Cl)CC2)CC1 | –
23 | 191 nM | CC(C)Oc1ccccc1N1CCN([C@H]2CC[C@@H](NS(=O)(=O)c3ccccc3)CC2)CC1 | –
24 | 76 nM | CC(C)Oc1ccccc1N1CCN([C@H]2CC[C@H](NS(=O)(=O)c3ccc(Cl)cc3Cl)CC2)CC1 | –
25 | 271 nM | CC(C)Oc1ccccc1N1CCN([C@H]2CC[C@H](NS(=O)(=O)c3cccc(Cl)c3F)CC2)CC1 | –
26 | 149 nM | CC(C)Oc1ccccc1N1CCN([C@H]2CC[C@@H](NS(=O)(=O)c3ccccc3F)CC2)CC1 | Ki [2]: 2.4 nM
27 | 27 nM | CC(C)Oc1ccccc1N1CCN([C@H]2CC[C@H](NS(=O)(=O)c3ccc(F)cc3)CC2)CC1 | –
28 | 36 nM | COc1ccc(Br)cc1S(=O)(=O)N[C@H]1CC[C@H](N2CCN(c3ccccc3OC(C)C)CC2)CC1 | –

Further lines, the molecule ahead of its results:

Row | Compound | Ki (D(2) dopamine receptor) | other results
29 | CC(C)Oc1ccccc1N1CCN([C@H]2CC[C@@H](NS(=O)(=O)c3ccccc3[N+](=O)[O-])CC2)CC1 | 51 nM | –
30 | CC(C)Oc1ccccc1N1CCN([C@H]2CC[C@H](NS(=O)(=O)c3ccccc3[N+](=O)[O-])CC2)CC1 | 86 nM | –
31 | COc1ccc(C)cc1S(=O)(=O)N[C@H]1CC[C@H](N2CCN(c3ccccc3OC(C)C)CC2)CC1 | 50 nM | –
32 | COc1ccc(F)cc1S(=O)(=O)N[C@H]1CC[C@@H](N2CCN(c3ccccc3OC(C)C)CC2)CC1 | 173 nM | –
33 | COc1ccc(OC)c(S(=O)(=O)N[C@H]2CC[C@H](N3CCN(c4ccccc4OC(C)C)CC3)CC2)c1 | 62 nM | –
34 | COc1ccc(C(F)(F)F)cc1S(=O)(=O)N[C@H]1CC[C@@H](N2CCN(c3ccccc3OC(C)C)CC2)CC1 | 194 nM | –
35 | COc1ccc(C(F)(F)F)cc1S(=O)(=O)N[C@H]1CC[C@H](N2CCN(c3ccccc3OC(C)C)CC2)CC1 | 1.9 nM | Ki [3]: 25 nM; Ki [2]: 15 nM
36 | COc1ccc([N+](=O)[O-])cc1S(=O)(=O)N[C@H]1CC[C@H](N2CCN(c3ccccc3OC(C)C)CC2)CC1 | 18 nM | –
37 | COc1ccc(Cl)cc1S(=O)(=O)N[C@H]1CC[C@@H](N2CCN(c3ccccc3OCC3CC3)CC2)CC1 | 588 nM | Ki [3]: 19 nM; Ki [1]: 601 nM; Ki [2]: 48 nM
38 | O=S(=O)(N[C@H]1CC[C@@H](N2CCN(c3ccccc3OCC3CC3)CC2)CC1)c1cc(Cl)ccc1F | 425 nM | Ki [3]: 36 nM; Ki [1]: 952 nM; Ki [2]: 44 nM
39 | CC(C)Oc1ccccc1N1CCN([C@H]2CC[C@@H](NS(=O)(=O)Cc3ccccc3)CC2)CC1 | 24 nM | –
40 | CC(C)Oc1ccccc1N1CCN([C@H]2CC[C@H](NS(=O)(=O)Cc3ccccc3)CC2)CC1 | 71 nM | –
41 | CC(C)Oc1ccccc1N1CCN([C@H]2CC[C@@H](NS(=O)(=O)c3ccccc3C#N)CC2)CC1 | 55 nM | –
42 | CC(C)Oc1ccccc1N1CCN([C@H]2CC[C@H](NS(=O)(=O)c3ccccc3C#N)CC2)CC1 | 2.4 nM | –
43 | CC(C)Oc1ccccc1N1CCN([C@H]2CC[C@@H](NS(=O)(=O)c3ccc(S(C)(=O)=O)cc3)CC2)CC1 | 122 nM | –
44 | CC(C)Oc1ccccc1N1CCN([C@H]2CC[C@H](NS(=O)(=O)c3ccc(S(C)(=O)=O)cc3)CC2)CC1 | 14 nM | –
45 | CC(C)Oc1ccccc1N1CCN([C@H]2CC[C@@H](NS(=O)(=O)c3ccc(OC(F)(F)F)cc3)CC2)CC1 | 430 nM | Ki [3]: 17 nM
46 | COc1ccc(OC)c(S(=O)(=O)N[C@H]2CC[C@@H](N3CCN(c4ccccc4OC(C)C)CC3)CC2)c1 | 81 nM | Ki [1]: 153 nM; Ki [2]: 5.1 nM
47 | COc1ccc(F)cc1S(=O)(=O)N[C@H]1CC[C@H](N2CCN(c3ccccc3OC(C)C)CC2)CC1 | 139 nM | –
48 | CC(C)Oc1ccccc1N1CCN([C@H]2CC[C@H](NS(=O)(=O)c3ccc(OC(F)(F)F)cc3)CC2)CC1 | 58 nM | –
49 | COc1ccc([N+](=O)[O-])cc1S(=O)(=O)N[C@H]1CC[C@@H](N2CCN(c3ccccc3OC(C)C)CC2)CC1 | 45 nM | –
50 | COc1ccc(Cl)cc1S(=O)(=O)N[C@H]1CC[C@@H](N2CCN(c3ccccc3OC(C)C)CC2)CC1 (stereo in doubt; form 1) | 101 nM | Ki [3]: 1 nM
51 | COc1ccc(S(=O)(=O)N[C@H]2CC[C@@H](N3CCN(c4ccccc4OC(C)C)CC3)CC2)cc1OC (stereo in doubt; form 1) | 94 nM | –
52 | COc1ccc(Cl)cc1S(=O)(=O)N[C@H]1CC[C@@H](N2CCN(c3ccccc3OC(C)C)CC2)CC1 (stereo in doubt; form 2) | 259 nM | Ki [3]: 11 nM; Ki [1]: 399 nM
53 | COc1ccc(S(=O)(=O)N[C@H]2CC[C@@H](N3CCN(c4ccccc4OC(C)C)CC3)CC2)cc1OC (stereo in doubt; form 2) | 810 nM | Ki [1]: 112 nM; Ki [2]: 19 nM
54 | CCOc1ccccc1OCCN[C@H](C)Cc1ccc(OC)c(S(N)(=O)=O)c1 [TAMSULOSIN] | – | Ki [1]: 2 nM; Ki [2]: 0.2 nM
